Read-outs that look alike come from different tables or passages of the source.
What was measured:
DBH = conditions: literature, cited from earlier work
[1] = literature; cited from earlier work
[2] = system: peripheral dopamine (DA) and norepinephrine (NE) levels; assay: effect in vivo on peripheral dopamine (DA) and norepinephrine (NE) levels; set-up: species or system spontaneously hypertensive rats; conditions: oral, two doses approx. 18 h apart, sacrificed about 2 h after second dose, fusaric acid 50 mg/kg; for DA / NE: average of groups of five; for DA: control (saline) 0.314; for DA / DA/NE Ratio: * p <.001 for both compounds; for NE: control (saline) 9.98; for DA/NE Ratio: control (saline) 0.0314
Experimental: One of the compounds of the invention was tested for its effect in vivo on peripheral dopamine (DA) and norepinephrine (NE) levels substantially by the procedure of DaPrada and Zurcher, Life Sciences, 19, 1161, (1976). Groups of five spontaneously hypertensive rats were dosed orally, twice, the second dose approximately 18 hours after the first, and were sacrificed about 2 hours after the second dose.

[3] = biological target: T1, dopamine-β-hydroxylase (DBH) (Bos taurus, UniProt P15101); assay: in vitro DBH inhibition (conversion of tyramine to octopamine, spectrophotometric at 330 nm); format: biochemical
T1 sequence (P15101 1-610): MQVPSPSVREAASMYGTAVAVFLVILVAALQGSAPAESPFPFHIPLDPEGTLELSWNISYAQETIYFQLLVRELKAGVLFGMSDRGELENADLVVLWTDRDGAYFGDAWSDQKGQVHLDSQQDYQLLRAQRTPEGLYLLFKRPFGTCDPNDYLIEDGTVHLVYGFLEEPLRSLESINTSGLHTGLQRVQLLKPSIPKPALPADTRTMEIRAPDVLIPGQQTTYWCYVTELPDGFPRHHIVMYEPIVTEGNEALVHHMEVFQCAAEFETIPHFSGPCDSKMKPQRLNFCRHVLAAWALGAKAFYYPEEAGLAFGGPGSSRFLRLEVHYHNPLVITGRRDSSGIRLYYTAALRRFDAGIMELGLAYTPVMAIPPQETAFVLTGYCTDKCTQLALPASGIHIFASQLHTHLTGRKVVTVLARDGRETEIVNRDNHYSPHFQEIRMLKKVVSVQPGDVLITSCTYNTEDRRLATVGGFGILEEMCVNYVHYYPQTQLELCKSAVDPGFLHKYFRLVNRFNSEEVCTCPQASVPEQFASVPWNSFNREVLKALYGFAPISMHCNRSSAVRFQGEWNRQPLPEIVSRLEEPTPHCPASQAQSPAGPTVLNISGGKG
Experimental: Because the compounds of Formulae I and II inhibit DBH activity, they have therapeutic value as diuretic, natriuretic, cardiotonic, antihypertensive and vasodilator agents, as well as antiulcerogenic agents. Listed in Table I are the compounds of the invention and compounds included in the pharmaceutical compositions of the invention and useful in the methods of the invention that were tested for in vitro DBH inhibition by a standard procedure for assaying conversion of tyramine to octopamine in the presence of DBH. J. J. Pisano, et al., Biochem. Biophys. Acta; 43, 566-568 (1960). Octopamine was assayed following sodium periodate oxidation to p-hydroxybenzaldehyde by measuring spectrophotometric absorbance at 330 nm. In Table I, inhibition is given in molar concentration of compound at which DBH activity was halved (IC50). Melting points (mp) are given in °C.

[4] = system: spontaneously hypertensive rats; assay: mean arterial blood pressure in spontaneously hypertensive rats; format: in vivo; conditions: 50 mg/kg intraperitoneally, monitored for 260 minutes, tail artery cannulae
Experimental: Further, spontaneously hypertensive rats were dosed with a suspension or solution of 4-(3'-fluorobenzyl)-1,2,4-triazole-3-thiol at a dose of 50 mg/kg intraperitoneally, and mean arterial blood pressure was monitored for 260 minutes using indwelling cannulae positioned in the tail arteries.

[5] = Ehrreich et al., literature; cited from earlier work
[6] = in vitro, tyramine to octopamine conversion, read-out: IC50 (molar concentration of compound at which DBH activity was halved)

| Compound | DBH inhibition (in words) (DBH) | IC50 [3, 6] [nM] | other results |
| --- | --- | --- | --- |
| O=C(O)c1ccc(CCC(Br)CBr)cn1 (stereo not shown) [5-(3,4-dibromobutyl)picolinic acid] | DBH inhibitors |  |  |
| NNc1ccc(C(=O)O)nc1 [5-hydrazinopicolinic acid] | inhibit DBH |  |  |
| NNCc1ccccc1 [benzylhydrazine] | apparently act as competitive inhibitors |  |  |
| CCCCc1ccc(C(=O)O)nc1 [Fusaric acid] |  |  | toxicity [1]: hepatotoxic; DA [2]: 0.715 µg/g; NE [2]: 8.19 µg/g; DA/NE Ratio [2]: 0.0875; IC50 [3]: 800 nM |
| NOCc1ccccc1 [Benzyloxyamine, benzyloxyamine] | apparently act as competitive inhibitors |  |  |
| Nc1ccc(C(=O)O)nc1 [5-aminopicolinic acid] | inhibit DBH |  |  |
| Fc1cccc(Cn2cnnc2S)c1 [4-(3'-fluorobenzyl)-1,2,4-triazole-3-thiol] |  | 2700 | DA [2]: 0.958 µg/g; NE [2]: 8.46 µg/g; DA/NE Ratio [2]: 0.114; mean arterial blood pressure reduction compared to vehicle-treated controls [4]: statistically significant blood pressure reductions at 60, 140, 160, 200, and 240 minutes |
| Oc1c(F)cc(Cn2cnnc2S)cc1F [4-(3',5'-difluoro-4'-hydroxybenzyl)-1,2,4-triazole-3-thiol] |  | 20 |  |
| Fc1cc(F)cc(Cn2cnnc2S)c1 [4-(3',5'-difluorobenzyl)-1,2,4-triazole-3-thiol] |  | 1000 |  |
| CCCC(=O)c1ccc(C(=O)O)nc1 [5-butyroylpicolinic acid] | inhibit DBH |  |  |
| O=C(O)c1ccc(CCCCCl)cn1 [5-(4-chlorobutyl)picolinic acid] | inhibit DBH |  |  |
| Sc1nncn1Cc1ccccc1 [4-benzyl-1,2,4-triazole-3-thiol] |  | 24000 |  |
| CCCCc1ccc(C(N)=O)nc1 [Bupicomide, 5-(n-butyl)picolinamine] | DBH inhibitor |  | antihypertensive activity [5]: antihypertensive activity |
| phenylpicolinic acid |  |  | DBH inhibitory activity relative to fusaric acid (DBH; Runti et al.): twice the inhibitory activity of fusaric acid |
| CN(C)C(=S)SCc1ccc(C(=O)O)nc1 [5-(dimethyldithiocarbamoylmethyl)picolinic acid] | DBH inhibitors |  |  |
| COc1c(F)cc(Cn2cnnc2S)cc1F [4-(3',5'-difluoro-4'-methoxybenzyl)-1,2,4-triazole-3-thiol] |  | 19000 |  |

From patent US4628059A, “Dopamine-β-hydroxylase inhibitors” (SmithKlein Beckman Corporation, priority 1985, dated 1986)
